Where two headings read alike, the source gives them in different places.
Legend:
CYP2C19 = CYP2C19 (Homo sapiens, UniProt P33261); assay: in vitro; parameters: cytochrome P450 isoform inhibition liability assay
Method: (§1) Independent of the effect of any antiparasitic potential of compounds, they were evaluated using a panel of early-toxicity assays comprising cytotoxicity (A549, human lung adenocarcinoma epithelial cell line and WI-38, human lung fibroblasts), mitochondrial toxicity (786-O, human renal carcinoma cell line), hERG inhibition,[31] cytochrome P450 inhibition (CYP1A2, CYP2C9, CYP2C19, CYP2D6, and CYP3A4),[31] and Aurora B kinase inhibition. […] For the two compounds active against TbPTR1 (4m and 4o), IC50 against hERG, cytochrome P450, and mitochondrial toxicity were determined (reported in Supporting Information). We observed that the dose of compounds 4m, 4o, 4c, and 3k was 4 μM in the potentiation assays. […] In the case of hERG, CYP2D6, CYP2A9, CYP2C19, and mitochondrial toxicity, there is a selectivity index of around 3–4 fold, thus showing an acceptable profile.  Figure 10 Summary heat map of the in vitro assays to determine possible liability issues for all synthesized compounds. Assays were performed to assess inhibition of hERG and five CYP isoforms (1A2, 2C9, 2C19, 2D6, and 3A4), growth inhibition of A549 and W1-38 cell lines, and mitochondrial toxicity at 10 μM. The hDHFR inhibition was determined at 100 μM. The data, expressed as percentage values, were organized by adopting a color code for rapid and intuitive visualization. The ideal compound should have all tiles blue, indicating a safe toxicological profile for progressing into the development pipeline. The cells are colored from blue (100% of cell growth at the tested concentration) to red (0% of cell growth at the tested concentration) for A549 and W1-38 and from blue (0% of inhibitory activity at the tested concentration) to red (100% of inhibitory activity at the tested concentration) for CYP isoforms, hERG, hDHFR, and mitochondrial toxicity.

CYP2D6 = CYP2D6 (Homo sapiens, UniProt P10635); assay: in vitro; parameters: cytochrome P450 isoform inhibition liability assay
Method: as §1

CYP3A4 = CYP3A4 (Homo sapiens, UniProt P08684); assay: in vitro; parameters: cytochrome P450 isoform inhibition liability assay
Method: as §1

CYP2C9 = CYP2C9 (Homo sapiens, UniProt P11712); assay: in vitro; parameters: cytochrome P450 isoform inhibition liability assay
Method: as §1

CYP1A2 = target: T1, CYP1A2 (Homo sapiens, UniProt P05177); assay: in vitro; parameters: cytochrome P450 isoform inhibition liability assay
T1 sequence (P05177 1-516): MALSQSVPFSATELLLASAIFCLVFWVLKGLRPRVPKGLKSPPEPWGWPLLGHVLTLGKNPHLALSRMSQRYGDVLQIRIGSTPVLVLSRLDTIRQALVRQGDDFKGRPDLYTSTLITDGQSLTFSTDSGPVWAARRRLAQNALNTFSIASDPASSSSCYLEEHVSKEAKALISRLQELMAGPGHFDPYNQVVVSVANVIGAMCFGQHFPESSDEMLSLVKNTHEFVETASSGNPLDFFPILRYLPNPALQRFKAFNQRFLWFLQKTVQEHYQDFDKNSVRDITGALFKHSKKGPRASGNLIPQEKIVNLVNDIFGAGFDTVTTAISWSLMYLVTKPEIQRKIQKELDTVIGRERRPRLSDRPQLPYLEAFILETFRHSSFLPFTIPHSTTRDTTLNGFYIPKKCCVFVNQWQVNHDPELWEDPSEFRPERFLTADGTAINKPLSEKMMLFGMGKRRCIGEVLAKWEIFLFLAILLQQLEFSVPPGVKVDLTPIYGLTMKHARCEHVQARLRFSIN
Method: as §1

TbPTR1 = target: T2, TbPTR1 (Trypanosoma brucei brucei, UniProt O76290); assay: biochemical; settings: for inhibition at 50 µM: 50 μM compound, read-out: % Inhibition TbPTR1 at 50 μM; for IC50: dose-response 0.001-100 μM
T2 construct: made in house
T2 sequence (O76290 1-268): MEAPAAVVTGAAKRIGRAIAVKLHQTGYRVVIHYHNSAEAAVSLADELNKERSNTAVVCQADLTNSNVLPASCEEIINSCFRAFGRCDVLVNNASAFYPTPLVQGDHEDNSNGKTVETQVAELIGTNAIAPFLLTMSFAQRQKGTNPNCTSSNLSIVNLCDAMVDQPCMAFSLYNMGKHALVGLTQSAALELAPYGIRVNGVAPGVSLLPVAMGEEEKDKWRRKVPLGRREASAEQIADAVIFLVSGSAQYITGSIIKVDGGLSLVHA

in vitro [1] = assay: in vitro; parameters: cytotoxicity, per cent cell growth of A549 cells; settings: human, a549 cells; read-out: % cell growth A549 at 10uM
Method: as §1

[2] = system: T. b. brucei Lister 427 bloodstream forms; assay: In vitro activity against T. brucei (HTS SYBR Green I growth inhibition assay); format: cell-based, Trypanosoma brucei brucei; settings: Trypanosoma brucei, standard deviation within ±10% of the value; for inhibition at 50 µM: read-out: % Inhibition T. brucei at 50 μM; for EC50: read-out: EC50 T. brucei
hERG = target: T3, hERG (Homo sapiens, UniProt Q12809); parameters: hERG inhibition liability assay
T3 construct: gene KCNH2
Method: as §1

in vitro [3] = assay: in vitro; parameters: cytotoxicity, per cent cell growth of WI-38 fibroblasts; settings: human, wi-38 cells; read-out: % cell growth W1-38 at 10uM
Method: as §1

hDHFR = target: T4, hDHFR (Homo sapiens, UniProt P00374); assay: biochemical; parameters: human DHFR enzyme inhibition
T4 construct: gene DHFR
T4 sequence (P00374 1-187): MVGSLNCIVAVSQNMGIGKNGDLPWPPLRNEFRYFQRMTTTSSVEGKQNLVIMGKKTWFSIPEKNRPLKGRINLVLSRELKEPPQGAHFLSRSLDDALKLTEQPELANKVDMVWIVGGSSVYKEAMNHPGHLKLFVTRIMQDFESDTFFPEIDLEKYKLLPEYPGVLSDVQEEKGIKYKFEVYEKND
Method: Figure 10 Summary heat map of the in vitro assays to determine possible liability issues for all synthesized compounds. Assays were performed to assess inhibition of hERG and five CYP isoforms (1A2, 2C9, 2C19, 2D6, and 3A4), growth inhibition of A549 and W1-38 cell lines, and mitochondrial toxicity at 10 μM. The hDHFR inhibition was determined at 100 μM. The data, expressed as percentage values, were organized by adopting a color code for rapid and intuitive visualization. The ideal compound should have all tiles blue, indicating a safe toxicological profile for progressing into the development pipeline. The cells are colored from blue (100% of cell growth at the tested concentration) to red (0% of cell growth at the tested concentration) for A549 and W1-38 and from blue (0% of inhibitory activity at the tested concentration) to red (100% of inhibitory activity at the tested concentration) for CYP isoforms, hERG, hDHFR, and mitochondrial toxicity.

786-O = assay: cells; parameters: mitochondrial toxicity in 786-O renal carcinoma cells; settings: Homo sapiens, 786-0; mitochondrial toxicity
Method: as §1

CYP2C19, sequence (P33261 whole entry, canonical isoform): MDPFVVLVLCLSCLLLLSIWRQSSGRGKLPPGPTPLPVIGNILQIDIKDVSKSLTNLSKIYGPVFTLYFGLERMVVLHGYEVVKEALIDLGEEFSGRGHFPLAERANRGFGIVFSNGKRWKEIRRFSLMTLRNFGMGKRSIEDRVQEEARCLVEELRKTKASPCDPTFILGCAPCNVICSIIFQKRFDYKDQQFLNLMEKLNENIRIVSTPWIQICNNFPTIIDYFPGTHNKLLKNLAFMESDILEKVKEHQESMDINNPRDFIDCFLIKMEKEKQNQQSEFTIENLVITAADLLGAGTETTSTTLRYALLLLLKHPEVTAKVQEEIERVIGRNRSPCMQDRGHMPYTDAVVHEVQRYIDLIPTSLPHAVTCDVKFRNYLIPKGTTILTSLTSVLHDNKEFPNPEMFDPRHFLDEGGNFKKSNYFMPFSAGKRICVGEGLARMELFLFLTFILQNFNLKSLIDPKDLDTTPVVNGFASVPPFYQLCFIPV
T3 sequence (Q12809 whole entry): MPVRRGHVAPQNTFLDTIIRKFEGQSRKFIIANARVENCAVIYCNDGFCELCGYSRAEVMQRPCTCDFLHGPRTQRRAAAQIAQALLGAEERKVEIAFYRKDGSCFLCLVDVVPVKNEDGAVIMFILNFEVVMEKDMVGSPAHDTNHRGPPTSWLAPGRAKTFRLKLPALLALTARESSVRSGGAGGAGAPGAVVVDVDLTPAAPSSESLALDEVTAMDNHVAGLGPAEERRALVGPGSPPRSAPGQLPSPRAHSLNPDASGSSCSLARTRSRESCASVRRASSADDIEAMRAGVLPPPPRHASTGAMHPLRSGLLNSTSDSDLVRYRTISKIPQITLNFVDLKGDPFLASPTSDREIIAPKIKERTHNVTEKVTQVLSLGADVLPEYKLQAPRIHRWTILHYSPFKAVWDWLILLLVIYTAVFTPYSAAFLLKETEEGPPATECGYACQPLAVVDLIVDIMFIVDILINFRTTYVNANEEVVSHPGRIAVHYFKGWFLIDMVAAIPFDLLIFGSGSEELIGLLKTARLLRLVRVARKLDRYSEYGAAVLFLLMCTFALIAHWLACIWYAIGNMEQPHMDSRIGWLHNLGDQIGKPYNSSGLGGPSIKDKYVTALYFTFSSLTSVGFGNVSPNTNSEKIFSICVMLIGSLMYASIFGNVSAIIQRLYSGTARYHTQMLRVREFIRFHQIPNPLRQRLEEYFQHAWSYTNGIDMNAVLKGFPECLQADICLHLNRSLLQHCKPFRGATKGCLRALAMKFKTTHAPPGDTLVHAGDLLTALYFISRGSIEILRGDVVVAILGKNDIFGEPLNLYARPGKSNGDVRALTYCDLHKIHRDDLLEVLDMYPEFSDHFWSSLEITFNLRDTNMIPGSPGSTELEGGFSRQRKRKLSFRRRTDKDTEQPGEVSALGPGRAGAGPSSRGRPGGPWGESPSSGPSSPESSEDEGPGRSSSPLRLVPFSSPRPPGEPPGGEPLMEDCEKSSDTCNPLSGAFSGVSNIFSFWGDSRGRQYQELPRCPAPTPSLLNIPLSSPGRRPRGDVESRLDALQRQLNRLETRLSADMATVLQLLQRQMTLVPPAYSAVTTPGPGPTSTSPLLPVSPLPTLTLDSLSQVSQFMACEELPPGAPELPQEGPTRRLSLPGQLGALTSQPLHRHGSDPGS
CYP2C9, sequence (P11712 whole entry, canonical isoform): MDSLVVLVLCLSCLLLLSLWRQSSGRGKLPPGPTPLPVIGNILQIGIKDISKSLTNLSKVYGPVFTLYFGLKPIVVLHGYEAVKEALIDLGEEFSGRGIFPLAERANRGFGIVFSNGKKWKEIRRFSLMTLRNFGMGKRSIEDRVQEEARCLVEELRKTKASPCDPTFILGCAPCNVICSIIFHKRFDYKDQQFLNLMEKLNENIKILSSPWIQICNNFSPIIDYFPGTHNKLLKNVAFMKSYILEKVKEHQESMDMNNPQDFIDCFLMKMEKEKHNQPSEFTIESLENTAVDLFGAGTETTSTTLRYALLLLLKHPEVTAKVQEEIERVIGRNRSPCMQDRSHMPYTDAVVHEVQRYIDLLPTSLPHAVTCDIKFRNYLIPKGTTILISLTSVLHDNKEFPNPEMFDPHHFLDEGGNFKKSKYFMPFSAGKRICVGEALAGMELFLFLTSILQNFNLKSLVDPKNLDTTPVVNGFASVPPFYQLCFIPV
CYP3A4, sequence (P08684 whole entry, canonical isoform): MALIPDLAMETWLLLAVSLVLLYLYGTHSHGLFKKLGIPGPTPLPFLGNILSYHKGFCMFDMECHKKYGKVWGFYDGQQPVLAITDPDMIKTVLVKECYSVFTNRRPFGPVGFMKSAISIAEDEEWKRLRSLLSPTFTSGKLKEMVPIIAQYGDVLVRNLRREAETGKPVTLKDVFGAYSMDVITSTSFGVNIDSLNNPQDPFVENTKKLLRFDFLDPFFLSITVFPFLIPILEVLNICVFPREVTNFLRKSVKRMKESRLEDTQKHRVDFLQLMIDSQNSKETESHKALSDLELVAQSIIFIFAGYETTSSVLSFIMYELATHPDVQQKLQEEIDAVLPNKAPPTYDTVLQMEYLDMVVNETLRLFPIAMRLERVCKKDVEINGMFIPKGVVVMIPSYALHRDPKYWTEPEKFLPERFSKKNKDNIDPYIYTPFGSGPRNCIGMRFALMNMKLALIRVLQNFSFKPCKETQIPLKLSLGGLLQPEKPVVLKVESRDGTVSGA
CYP2D6, sequence (P10635 whole entry, canonical isoform): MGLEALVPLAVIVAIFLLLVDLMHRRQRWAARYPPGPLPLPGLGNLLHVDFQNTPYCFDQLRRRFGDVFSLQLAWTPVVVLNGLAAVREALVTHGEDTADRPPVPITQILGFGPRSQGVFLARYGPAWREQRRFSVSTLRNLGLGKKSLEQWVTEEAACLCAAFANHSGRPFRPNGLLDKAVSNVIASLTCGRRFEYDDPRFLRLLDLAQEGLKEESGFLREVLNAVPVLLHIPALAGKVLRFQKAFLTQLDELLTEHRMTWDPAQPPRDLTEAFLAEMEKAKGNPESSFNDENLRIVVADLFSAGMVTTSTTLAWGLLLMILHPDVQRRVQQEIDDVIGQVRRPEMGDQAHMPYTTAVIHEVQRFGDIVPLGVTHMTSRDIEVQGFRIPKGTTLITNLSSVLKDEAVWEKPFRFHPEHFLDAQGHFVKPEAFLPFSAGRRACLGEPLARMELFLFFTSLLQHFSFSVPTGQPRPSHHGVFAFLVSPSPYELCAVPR

inhibition at 25 µM (hDHFR; 25 uM) [%] | Compound | inhibition at 10 µM (CYP2C19) [%] | inhibition at 10 µM (CYP2D6) [%] | inhibition at 10 µM (CYP3A4) [%] | inhibition at 10 µM (CYP2C9) [%] | inhibition at 10 µM (CYP1A2) [%] | inhibition at 50 µM (TbPTR1) [%] | viability at 10 µM (in vitro [1]) [%] | inhibition at 50 µM [2] [%] | inhibition at 10 µM (hERG) [%] | viability at 10 µM (in vitro [3]) [%] | inhibition at 100 µM (hDHFR) [%] | times less active than 4o against TbPTR1 (TbPTR1) | IC50 (TbPTR1) [µM] | EC50 [2] [µM] | inhibition at 10 µM (hDHFR) [%] | inhibition at 10 µM (786-O) [%]
– | Nc1cccc(-c2nnc(N)s2)c1 [1j] | -45.8 ± 11.8 | -51 ± 8.9 | -14.9 ± 3.9 | -20.2 ± 7.3 | 5.3 ± 5.1 | 27 ± 0.4 | 134 ± 4.7 | 1 | 32.6 ± 34.3 | 92.5 ± 7.8 | 18 | – | – | – | – | –
– | Nc1nnc(NCCc2ccccc2)s1 [4n] | 29.2 ± 6.6 | 103 ± 0.2 | 25.1 ± 4.3 | 30.4 ± 2.9 | 22.7 ± 1.9 | 36.7 ± 2 | 112 ± 5.4 | 4 | 91.4 ± 6.2 | 66.1 ± 3.1 | 19 | about 3 times | 62 | – | – | –
– | Nc1nnc(-c2cccc(-c3ccc(C(F)(F)F)cc3)c2)s1 [2e] | 12.3 ± 5.4 | 20 ± 5.8 | 17.9 ± 5.3 | 25.6 ± 4 | 92.6 ± 1.1 | 6.6 ± 0.6 | – | 92.1 | – | – | – | – | – | 42 | 25 | –
– | C[C@@H](c1cccc(C(=O)c2ccccc2)c1)c1nnc(N)s1 [3f] | 39.3 ± 3.2 | -12.7 ± 6.2 | 94.5 ± 0.8 | – | -14.2 ± 7.1 | 47.2 ± 0.4 | 134 ± 3.3 | 88 | 16 ± 6.3 | 127 ± 21.4 | 51 | – | – | 20 | – | -3.4 ± 2.1
– | COc1ccc(-c2cccc(-c3nnc(N)s3)c2)cc1OC [2f] | – | 19.2 ± 3.5 | 48.3 ± 2.4 | 53.2 ± 1.6 | 92.8 ± 1.9 | 8.6 ± 0.6 | 106 ± 4.2 | 9.5 | 15.1 ± 4.8 | 87.5 ± 44.4 | 28 | – | – | – | – | 1.6 ± 14.4
– | Nc1nnc(-c2ccccc2Cc2ccccc2)s1 [1m, 5-(2-benzylphenyl)-1,3,4-thiadiazol-2-amine] | 90.5 ± 0.6 | 69.2 ± 4.5 | 47.5 ± 4.8 | 36.5 ± 5.4 | 68.1 ± 1 | – | – | – | – | – | – | – | – | – | 20 | –
37 | N#Cc1ccc(Cc2ccccc2-c2nnc(N)s2)cc1 [1n, 4-(2-(5-amino-1,3,4-thiadiazol-2-yl)benzyl)benzonitrile] | 104 ± 2 | 75.4 ± 5.2 | 69.6 ± 3.25 | 59.8 ± 4.9 | 56.2 ± 0.5 | – | – | – | – | – | – | – | – | – | – | –
– | Nc1nnc(-c2cccc(-c3cccc(C(F)(F)F)c3)c2)s1 [2d] | 43.6 ± 2.1 | 31.1 ± 4.3 | 33.9 ± 3.8 | 46.1 ± 5.4 | 100 ± 2.1 | 4.6 ± 1 | – | 94.8 | – | – | – | – | – | 37 | 34 | –
– | COc1cc(CNc2nnc(N)s2)cc(OC)c1OC [4k] | 0.2 ± 10.3 | 23.6 ± 2.4 | 11.4 ± 3.6 | 20.2 ± 2.5 | 22.3 ± 4.1 | < 0 | 116 ± 3.8 | < 0 | 21.3 ± 27.9 | 71.2 ± 3.6 | – | – | – | – | – | -1.9 ± 14.9
– | Nc1nnc(-c2ccco2)s1 [1s] | -10.4 ± 22.5 | -47.6 ± 4.7 | -14.9 ± 9.7 | -9 ± 3.5 | 0.3 ± 4.9 | 9 ± 0.8 | 132 ± 9.6 | < 0 | -3.8 ± 3.2 | 138 ± 9.8 | – | – | – | – | – | 1.9 ± 4.8
– | COc1ccc(CNc2nnc(N)s2)cc1OC [4j] | 5.7 ± 7.4 | 36.5 ± 4.4 | 18.6 ± 4.2 | 26.2 ± 1.3 | 23.9 ± 4.8 | 8.4 ± 1.2 | 118 ± 3.9 | 45.1 | 35.7 ± 7.1 | 129 ± 57.4 | – | – | – | – | – | -8.3 ± 4.5
– | Nc1nnc(NCCCc2ccccc2)s1 [4q, N2G(3Gphenylpropyl)G1,3,4GthiadiazoleG2,5Gdiamine] | 17.3 ± 4.6 | 100.2 ± 0.4 | 24.2 ± 4.7 | 18.6 ± 4.5 | 22.1 ± 2.7 | 30 ± 1.9 | 106 ± 3.7 | < 0 | 81.1 ± 11.6 | 111 ± 43.7 | – | – | 57 | – | – | 5.6 ± 18
– | Nc1nnc(NCc2ccc(F)cc2)s1 [4g] | -13.9 ± 11.1 | 103.1 ± 0.6 | 11.2 ± 3.1 | 22.9 ± 1.3 | 24.9 ± 2.6 | 14.7 ± 1.7 | 110 ± 8 | 33 | 96.9 ± 6.1 | 97.1 ± 30.2 | – | – | – | – | – | -8.3 ± 12.6
– | Nc1nnc(NCc2ccccc2)s1 [4b] | -32.1 ± 5.7 | -32.7 ± 6.7 | -9.5 ± 6.2 | -14.7 ± 3.3 | -17.2 ± 3.6 | 39.5 ± 0.9 | 104 ± 9.3 | < 0 | 1.8 ± 1.3 | 124 ± 19 | – | – | – | – | – | 9 ± 14.8
